Source: patent US6914045B2, “Glycopeptide antibiotics” (Wyeth Holdings Corporation, priority 2001, dated 2005)
Values after ≈ are worked out from the molar mass of the structure shown.

Columns and labels:
Assay in all cases: in vitro antibacterial evaluation, MIC by broth dilution
Type in all cases: cell-based
Enterococcus sp. = settings: broth dilution, 18 hours at 35° C.
In short: (§1)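 Step 1: dilute antibiotic across 64-0.06 μg/mL in Muller-Hinton II […]. Step 2: inoculate at 5×10^5 CFU/mL.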

Escherichia coli = settings: 18 hours at 35° C.
In short: as §1

Staphylococcus sp. = settings: broth dilution, 18 hours at 35° C.
In short: as §1

Streptococcus sp. = settings: broth dilution, 18 hours at 35° C.
In short: as §1

MIC Enterococcus avium (GC 4558) (Enterococcus sp.; Enterococcus avium (GC 4558)): 32 µg/mL (≈ 22.6 µM)
MIC Enterococcus faecalis (ATCC 29212) (Enterococcus sp.; Enterococcus faecalis (ATCC 29212)): 32 µg/mL (≈ 22.6 µM)
MIC Enterococcus faecalis (GC 2242) (Enterococcus sp.; Enterococcus faecalis (GC 2242)): 32 µg/mL (≈ 22.6 µM)
MIC Enterococcus faecalis (GC 2691) (Enterococcus sp.; Enterococcus faecalis (GC 2691)): 32 µg/mL (≈ 22.6 µM)
MIC Enterococcus faecalis (GC 3059) (Enterococcus sp.; Enterococcus faecalis (GC 3059)): 32 µg/mL (≈ 22.6 µM)
MIC Enterococcus faecalis (GC 4552) (Enterococcus sp.; Enterococcus faecalis (GC 4552)): 32 µg/mL (≈ 22.6 µM)
MIC Enterococcus faecalis (GC 4553) (Enterococcus sp.; Enterococcus faecalis (GC 4553)): 32 µg/mL (≈ 22.6 µM)
MIC Enterococcus faecalis (GC 4554) (Enterococcus sp.; Enterococcus faecalis (GC 4554)): 32 µg/mL (≈ 22.6 µM)
MIC Enterococcus faecalis (GC 6189) (Enterococcus sp.; Enterococcus faecalis (GC 6189)): 32 µg/mL (≈ 22.6 µM)
MIC Enterococcus faecium (GC 2243) (Enterococcus sp.; Enterococcus faecium (GC 2243)): 32 µg/mL (≈ 22.6 µM)
MIC Enterococcus faecium (GC 4556) (Enterococcus sp.; Enterococcus faecium (GC 4556)): 32 µg/mL (≈ 22.6 µM)
MIC Enterococcus faecium (GC 4557) (Enterococcus sp.; Enterococcus faecium (GC 4557)): 16 µg/mL (≈ 11.3 µM)
MIC Enterococcus faecalis (ATCC 29212) (Enterococcus sp.; strain ATCC 29212): 32 µg/mL (≈ 22.6 µM)
MIC Enterococcus faecalis (GC 2242) (Enterococcus sp.; strain GC 2242): 32 µg/mL (≈ 22.6 µM)
MIC Enterococcus faecium (GC 2243) (Enterococcus sp.; strain GC 2243): 32 µg/mL (≈ 22.6 µM)
MIC Enterococcus faecalis (GC 2691) (Enterococcus sp.; strain GC 2691): 32 µg/mL (≈ 22.6 µM)
MIC Enterococcus faecalis (GC 3059) (Enterococcus sp.; strain GC 3059): 32 µg/mL (≈ 22.6 µM)
MIC Enterococcus faecalis (GC 4552) (Enterococcus sp.; strain GC 4552): 32 µg/mL (≈ 22.6 µM)
MIC Enterococcus faecalis (GC 4553) (Enterococcus sp.; strain GC 4553): 32 µg/mL (≈ 22.6 µM)
MIC Enterococcus faecalis (GC 4554) (Enterococcus sp.; strain GC 4554): 32 µg/mL (≈ 22.6 µM)
MIC Enterococcus faecium (GC 4556) (Enterococcus sp.; strain GC 4556): 32 µg/mL (≈ 22.6 µM)
MIC Enterococcus faecium (GC 4557) (Enterococcus sp.; strain GC 4557): 16 µg/mL (≈ 11.3 µM)
MIC Enterococcus avium (GC 4558) (Enterococcus sp.; strain GC 4558): 32 µg/mL (≈ 22.6 µM)
MIC Enterococcus faecalis (GC 6189) (Enterococcus sp.; strain GC 6189): 32 µg/mL (≈ 22.6 µM)
MIC Escherichia coli (ATCC 25922) (Escherichia coli; strain ATCC 25922): >64 µg/mL
MIC Escherichia coli (GC 4559) (Escherichia coli; strain GC 4559): >64 µg/mL
MIC Escherichia coli (GC 4560) (Escherichia coli; strain GC 4560): 32 µg/mL (≈ 22.6 µM)
MIC Staphylococcus aureus (ATCC 29213) (Staphylococcus sp.): 32 µg/mL (≈ 22.6 µM)
MIC Staphylococcus aureus (GC 1131) (Staphylococcus sp.): 32 µg/mL (≈ 22.6 µM)
MIC Staphylococcus aureus (GC 3051) (Staphylococcus sp.): 32 µg/mL (≈ 22.6 µM)
MIC Staphylococcus aureus (GC 3053) (Staphylococcus sp.): 32 µg/mL (≈ 22.6 µM)
MIC Staphylococcus aureus (GC 4541) (Staphylococcus sp.): 8 µg/mL (≈ 5.64 µM)
MIC Staphylococcus aureus (GC 4542) (Staphylococcus sp.): 32 µg/mL (≈ 22.6 µM)
MIC Staphylococcus aureus (GC 4544) (Staphylococcus sp.): 32 µg/mL (≈ 22.6 µM)
MIC Staphylococcus aureus (GC 4545) (Staphylococcus sp.): 32 µg/mL (≈ 22.6 µM)
MIC Staphylococcus aureus (GC 1131) (Staphylococcus sp.; inoculum 5×10^5 CFU/mL, strain GC 1131): 32 µg/mL (≈ 22.6 µM)
MIC Staphylococcus aureus (ATCC 29213) (Staphylococcus sp.; strain ATCC 29213): 32 µg/mL (≈ 22.6 µM)
MIC Staphylococcus aureus (GC 3051) (Staphylococcus sp.; strain GC 3051): 32 µg/mL (≈ 22.6 µM)
MIC Staphylococcus aureus (GC 3053) (Staphylococcus sp.; strain GC 3053): 32 µg/mL (≈ 22.6 µM)
MIC Staphylococcus aureus (GC 4541) (Staphylococcus sp.; strain GC 4541): 8 µg/mL (≈ 5.64 µM)
MIC Staphylococcus aureus (GC 4542) (Staphylococcus sp.; strain GC 4542): 32 µg/mL (≈ 22.6 µM)
MIC Staphylococcus aureus-SMITH (GC 4543) (Staphylococcus sp.; strain GC 4543): 32 µg/mL (≈ 22.6 µM)
MIC Staphylococcus aureus (GC 4544) (Staphylococcus sp.; strain GC 4544): 32 µg/mL (≈ 22.6 µM)
MIC Staphylococcus aureus (GC 4545) (Staphylococcus sp.; strain GC 4545): 32 µg/mL (≈ 22.6 µM)
MIC Coagulase Negative Staphylococcus (GC 4547) (Staphylococcus sp.; strain GC 4547): 32 µg/mL (≈ 22.6 µM)
MIC Coagulase Negative Staphylococcus (GC 4548) (Staphylococcus sp.; strain GC 4548): 32 µg/mL (≈ 22.6 µM)
MIC Coagulase Negative Staphylococcus (GC 4549) (Staphylococcus sp.; strain GC 4549): 32 µg/mL (≈ 22.6 µM)
MIC Coagulase Negative Staphylococcus (GC 4551) (Staphylococcus sp.; strain GC 4551): 32 µg/mL (≈ 22.6 µM)
MIC Coagulase Negative Staphylococcus (GC 6257) (Staphylococcus sp.; strain GC 6257): 32 µg/mL (≈ 22.6 µM)
MIC Staphylococcus aureus-SMITH (GC 4543) (Staphylococcus sp.; strain SMITH GC 4543): 32 µg/mL (≈ 22.6 µM)
MIC Streptococcus agalactiae (GC 4564) (Streptococcus sp.; Streptococcus agalactiae (GC 4564)): 1 µg/mL (≈ 0.705 µM)
MIC Streptococcus pneumoniae (ATCC 6301) (Streptococcus sp.; Streptococcus pneumoniae (ATCC 6301)): 0.25 µg/mL (≈ 0.176 µM)
MIC Streptococcus pneumoniae (GC 1894) (Streptococcus sp.; Streptococcus pneumoniae (GC 1894)): 0.12 µg/mL (≈ 0.0847 µM)
MIC Streptococcus pneumoniae (GC 4565) (Streptococcus sp.; Streptococcus pneumoniae (GC 4565)): 0.25 µg/mL (≈ 0.176 µM)
MIC Streptococcus pyogenes (GC 4563) (Streptococcus sp.; Streptococcus pyogenes (GC 4563)): 0.5 µg/mL (≈ 0.353 µM)
MIC Streptococcus pneumoniae (ATCC 6301) (Streptococcus sp.; strain ATCC 6301): 0.25 µg/mL (≈ 0.176 µM)
MIC Streptococcus pneumoniae (GC 1894) (Streptococcus sp.; strain GC 1894): 0.12 µg/mL (≈ 0.0847 µM)
MIC Streptococcus pyogenes (GC 4563) (Streptococcus sp.; strain GC 4563): 0.5 µg/mL (≈ 0.353 µM)
MIC Streptococcus agalactiae (GC 4564) (Streptococcus sp.; strain GC 4564): 1 µg/mL (≈ 0.705 µM)
MIC Streptococcus pneumoniae (GC 4565) (Streptococcus sp.; strain GC 4565): 0.25 µg/mL (≈ 0.176 µM)
Structure (SMILES): CC(C)=CCCC(C)C1OCC2OC(OC3C(CO)OC(Oc4ccc(CC5NC(=O)C(C(C)c6ccccc6)NC(=O)CNC(=O)C(CO)NC(=O)C(C(O)C6CNC(=N)N6C6OC(CO)C(O)C(O)C6O)NC(=O)C(C(O)C6CNC(=N)N6)NC5=O)cc4)C(O)C3O)C(O)C(O)C2O1 (stereo not shown) [Example 125]
MIC Staphylococcus haemolyticus (GC 4546) (Staphylococcus sp.; strain GC 4546): 32 µg/mL (≈ 22.6 µM)
